# Patent US8722661B2, “Pyrrolopyrimidone and pyrrolopyridone inhibitors of tankyrase” (Genentech, Inc., priority 2012, dated 2014)
# Biological target: T1, Tankyrase 1 (Homo sapiens, UniProt O95271)
# T1 sequence (O95271 1-1327): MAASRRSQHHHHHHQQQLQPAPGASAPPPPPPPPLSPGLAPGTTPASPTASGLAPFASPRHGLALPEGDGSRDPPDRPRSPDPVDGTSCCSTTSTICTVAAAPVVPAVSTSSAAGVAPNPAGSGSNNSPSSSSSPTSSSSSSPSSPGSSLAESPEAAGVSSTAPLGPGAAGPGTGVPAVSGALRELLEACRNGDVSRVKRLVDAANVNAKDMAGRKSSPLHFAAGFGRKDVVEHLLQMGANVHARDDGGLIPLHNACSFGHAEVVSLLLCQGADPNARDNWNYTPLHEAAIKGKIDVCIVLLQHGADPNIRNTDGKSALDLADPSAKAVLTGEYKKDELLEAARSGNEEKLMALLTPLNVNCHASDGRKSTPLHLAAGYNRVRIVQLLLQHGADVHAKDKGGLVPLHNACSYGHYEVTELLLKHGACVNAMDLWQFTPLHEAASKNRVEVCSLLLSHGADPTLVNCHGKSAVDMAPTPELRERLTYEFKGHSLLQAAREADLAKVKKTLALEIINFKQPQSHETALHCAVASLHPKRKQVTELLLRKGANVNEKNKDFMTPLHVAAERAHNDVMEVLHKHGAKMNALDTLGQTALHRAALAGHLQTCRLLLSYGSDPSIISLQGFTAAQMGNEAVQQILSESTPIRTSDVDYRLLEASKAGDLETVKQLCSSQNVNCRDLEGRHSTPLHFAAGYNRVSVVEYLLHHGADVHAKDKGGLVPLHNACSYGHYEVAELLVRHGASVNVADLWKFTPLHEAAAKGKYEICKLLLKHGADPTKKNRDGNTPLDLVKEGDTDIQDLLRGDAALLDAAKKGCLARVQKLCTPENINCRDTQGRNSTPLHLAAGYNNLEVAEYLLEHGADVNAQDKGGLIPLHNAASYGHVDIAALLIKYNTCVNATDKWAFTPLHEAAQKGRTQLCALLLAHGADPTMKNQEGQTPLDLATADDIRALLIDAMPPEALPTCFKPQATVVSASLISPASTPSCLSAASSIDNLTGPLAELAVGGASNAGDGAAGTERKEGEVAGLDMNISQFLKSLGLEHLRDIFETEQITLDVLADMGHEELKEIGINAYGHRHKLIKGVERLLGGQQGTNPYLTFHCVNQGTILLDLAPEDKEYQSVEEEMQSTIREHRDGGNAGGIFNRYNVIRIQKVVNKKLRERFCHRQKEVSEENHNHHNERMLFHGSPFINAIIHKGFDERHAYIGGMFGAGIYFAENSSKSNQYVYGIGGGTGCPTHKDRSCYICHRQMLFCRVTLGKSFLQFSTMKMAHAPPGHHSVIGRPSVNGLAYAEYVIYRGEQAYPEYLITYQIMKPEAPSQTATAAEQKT
# Experiment: TNKS1 NAM assay (NADase activity, released nicotinamide by LC-MS)
# Type: biochemical
# Settings: Table I, value marked with superscript 2 (footnote not given), taken as the second assay
# Protocol: NADase activity of Tankyrase 1 was measured by quantifying released nicotinamide using liquid chromatography mass spectrometry. Varying concentrations of experimental compounds were incubated in 10 μL reactions containing 25 nM recombinant Tankyrase 1, 1 mM NAD+, 5 μM d4-nicotinamide internal standard, 2% DMSO, 50 mM Tris pH 7.5, 5 mM CaCl2, and 0.01% Triton X-100 for 1 h at RT. Reactions were quenched by mixing 2 μL of the reaction mixture with 98 μL of 0.05% formic acid. 1 μL of quenched reaction was loaded onto a reverse phase BEH-Phenyl column (Waters) pre-equilibrated with 1 mM ammonium formate and eluted with a linear gradient to 80% acetonitrile. Compound IC50s were determined by four-parameter curve fitting.
# Representative compound data for assays are listed below in Table I. Values are in uM.
compound,measurement,value
"COCCOc1cc(F)c(N2CCN(c3nc4c(ccn4CCO)c(=O)[nH]3)CC2)c(F)c1 [Example 63, 2-[4-[2 6-difluoro-4-(2-methoxyethoxy)phenyl]piperazin-1-yl]-7-(2-hydroxyethyl)-3H-pyrrolo[2,3-d]pyrimidin-4-one]",IC50,9.67 nM
